system: Pfeiffer cells, lymphoma cells having EZH2 mutation (A677G); assay: Proliferation inhibition of cells of hematologic malignancies (CCK-8, 11 days); format: cell-based; conditions: 11 days culture, read-out: Cell proliferation inhibitory effect (IC50)
Method: The growth inhibitory activity of 1,3-benzodioxole derivative compounds represented by chemical formula I of the present invention against Pfeiffer cells, which are lymphoma cells having EZH2 mutation (A677G), was evaluated.
Pfeiffer was cultured using RPMI1640 containing 10% fetal bovine serum. The cells were inoculated into wells of a 96-well culture dish at 10,000 cells each, and cultured for 11 days after treating with the test material for each concentration. For 11 days, the test material was replaced every three to four days. After culturing, the cells were treated with a cell counting kit-8 (CCK-8) reagent for each well, absorbance was measured at 450 nm, and IC50 values for cell proliferation were obtained through curve fitting of non-linear regression in the GraphPad program (GraphPad Prism 5.0 software).

| SMILES | IC50 |
| --- | --- |
| CSc1cc(C)[nH]c(=O)c1CNC(=O)c1cc(-c2ccc(N3C[C@@H](C)O[C@@H](C)C3)nc2)c2c(c1C)OC(C)(C1CCN(CCc3ccccc3)CC1)O2 (single isomer, unassigned) [Compound 56] | ≥ 0.1 µM |
| CCN1CCC(C2(C)Oc3c(-c4cnc(N(C)CC)nc4)cc(C(=O)NCc4c(SC)cc(C)[nH]c4=O)c(C)c3O2)CC1 (single isomer, unassigned) [Compound 83, 7-(2-(ethyl(methyl)amino)pyrimidin-5-yl)-2-(1-ethylpiperidin-4-yl)-2,4-dimethyl-N-((6-methyl-4-(methylthio)-2-oxo-1,2-dihydropyridin-3-yl)methyl)benzo[d][1,3]dioxole-5-carboxamide] | ≤ 0.01 µM |
| CSc1cc(C)[nH]c(=O)c1CNC(=O)c1cc(-c2ccc(N3C[C@@H](C)O[C@@H](C)C3)nc2)c2c(c1C)OC(C)(C1CCN(C(C)C)CC1)O2 (single isomer, unassigned) [Compound 51] | ≤ 0.01 µM |
| CSc1cc(C)[nH]c(=O)c1CNC(=O)c1cc(-c2ccc(N3CCOCC3)nc2)c2c(c1C)OC(C)(C1CCN(CC(F)(F)F)CC1)O2 (stereo not shown) [Compound 63, 2,4-dimethyl-N-((6-methyl-4-(methylthio)-2-oxo-1,2-dihydropyridin-3-yl)methyl)-7-(6-morpholinopyridin-3-yl)-2-(1-(2,2,2-trifluoro)piperidin-4-yl)benzo[d][1,3]dioxole-5-carboxamide] | ≥ 0.1 µM |
| CSc1cc(C)[nH]c(=O)c1CNC(=O)c1cc(-c2ccc(N3C[C@@H](C)O[C@@H](C)C3)nc2)c2c(c1C)OC(C)(C1CCN(CC(F)(F)F)CC1)O2 (single isomer, unassigned) [Compound 45] | ≥ 0.1 µM |

same assay, conditions: Homo sapiens, Pfeiffer, 264 h, 11 days culture, read-out: Cell proliferation inhibitory effect (IC50)

| SMILES | IC50 |
| --- | --- |
| CSc1cc(C)[nH]c(=O)c1CNC(=O)c1cc(-c2ccc(N3C[C@@H](C)O[C@@H](C)C3)nc2)c2c(c1C)OC(C)([C@H]1CC[C@H](N3CC(OCC(F)F)C3)CC1)O2 (stereo partly drawn) [Compound 103, 2-(trans-4-(3-(2,2-difluoroethoxy)azetidin-1-yl)cyclohexyl)-7-(6-((2S,6R)-2,6-dimethylmorpholino)pyridin-3-yl)-2,4-dimethyl-N-((6-methyl-4-(methylthio)-2-oxo-1,2-dihydropyridin-3-yl)methyl)benzo[d][1,3]dioxole-5-carboxamide] | ≤ 0.01 µM |
| CCCCN(C)c1ccc(-c2cc(C(=O)NCc3c(SC)cc(C)[nH]c3=O)c(C)c3c2OC(C)(C2CCN(CC(F)(F)F)CC2)O3)cn1 (stereo not shown) [Compound 98, 7-(6-(butyl(methyl)amino)pyridin-3-yl)-2,4-dimethyl-N-((6-methyl-4-(methylthio)-2-oxo-1,2-dihydropyridin-3-yl)methyl)-2-(1-(2,2,2-trifluoroethyl)piperidin-4-yl)benzo[d][1,3]dioxole-5-carboxamide] | ≥ 0.1 µM |
| COC(CN(C)[C@H]1CC[C@H](C2(C)Oc3c(-c4ccc(N5C[C@@H](C)O[C@@H](C)C5)nc4)cc(C(=O)NCc4c(SC)cc(C)[nH]c4=O)c(C)c3O2)CC1)OC (stereo partly drawn) [Compound 31, 2-(trans-4-((2,2-dimethoxyethyl)(methyl)amino)cyclohexyl)-7-(6-((2S,6R)-2,6-dimethylmorpholino)pyridin-3-yl)-2,4-dimethyl-N-((6-methyl-4-(methylthio)-2-oxo-1,2-dihydropyridin-3-yl)methyl)benzo[d][1,3]dioxole-5-carboxamide] | ≤ 0.01 µM |
| COCCN(C)[C@H]1CC[C@H](C2(C)Oc3c(-c4cnc(N(C)C)nc4)cc(C(=O)NCc4c(SC)cc(C)[nH]c4=O)c(C)c3O2)CC1 (stereo partly drawn) [Compound 26, 7-(2-(dimethylamino)pyrimidin-5-yl)-2-(trans-4-((2-methoxyethyl)(methyl)amino)cyclohexyl)-2,4-dimethyl-N-((6-methyl-4-(methylthio)-2-oxo-1,2-dihydropyridin-3-yl)methyl)benzo[d][1,3]dioxole-5-carboxamide] | ≤ 0.01 µM |
| COC1CN([C@H]2CC[C@H](C3(C)Oc4c(-c5ccc(N6C[C@@H](C)O[C@@H](C)C6)nc5)cc(C(=O)NCc5c(SC)cc(C)[nH]c5=O)c(C)c4O3)CC2)C1 (stereo partly drawn) [Compound 106, 7-(6-((2S,6R)-2,6-dimethylmorpholino)pyridin-3-yl)-2-(trans-4-(3-methoxyazetidin-1-yl)cyclohexyl)-2,4-dimethyl-N-((6-methyl-4-(methylthio)-2-oxo-1,2-dihydropyridin-3-yl)methyl)benzo[d][1,3]dioxole-5-carboxamide] | ≤ 0.01 µM |
| CSc1cc(C)[nH]c(=O)c1CNC(=O)c1cc(-c2cnc(N(C)C)nc2)c2c(c1C)OC(C)(C1CCN(CC(F)(F)F)CC1)O2 (stereo not shown) [Compound 35, 7-(2-(dimethylamino)pyrimidin-5-yl)-2,4-dimethyl-N-((6-methyl-4-(methylthio)-2-oxo-1,2-dihydropyridin-3-yl)methyl)-2-(1-(2,2,2-trifluoroethyl)piperidin-4-yl)benzo[d][1,3]dioxole-5-carboxamide] | ≤ 0.01 µM |
| CSc1cc(C)[nH]c(=O)c1CNC(=O)c1cc(-c2ccc(N3CC(C)CC(C)C3)nc2)c2c(c1C)OC(C)([C@H]1CC[C@H](N(C)C)CC1)O2 (stereo partly drawn) [Compound 16, 2-(trans-4-(dimethylamino)cyclohexyl)-7-(6-(3,5-dimethylpiperidin-1-yl)pyridin-3-yl)-2,4-dimethyl-N-((6-methyl-4-(methylthio)-2-oxo-1,2-dihydropyridin-3-yl)methyl)benzo[d][1,3]dioxole-5-carboxamide] | ≤ 0.01 µM |
| CSc1cc(C)[nH]c(=O)c1CNC(=O)c1cc(-c2ccc3c(c2)OCO3)c2c(c1C)OC(C)(C1CCN(CC(F)(F)F)CC1)O2 (stereo not shown) [Compound 94, 2,7-dimethyl-N-((6-methyl-4-(methylthio)-2-oxo-1,2-dihydropyridin-3-yl)methyl)-2-(1-(2,2,2-trifluoroethyl)piperidin-4-yl)-[4,5′-bibenzo[d][1,3]dioxol]-6-carboxamide] | 0.01 to 0.1 µM |
| CSc1cc(C)[nH]c(=O)c1CNC(=O)c1cc(-c2ccc(N3C[C@@H](C)O[C@@H](C)C3)nc2)c2c(c1C)OC(C)([C@H]1CC[C@H](N3CC(OC(C)C)C3)CC1)O2 (stereo partly drawn) [Compound 105, 7-(6-((2S,6R)-2,6-dimethylmorpholino)pyridin-3-yl)-2-(trans-4-(3-isopropoxyazetidin-1-yl)cyclohexyl)-2,4-dimethyl-N-((6-methyl-4-(methylthio)-2-oxo-1,2-dihydropyridin-3-yl)methyl)benzo[d][1,3]dioxole-5-carboxamide] | ≥ 0.1 µM |
| CCN1CCN(c2ncc(-c3cc(C(=O)NCc4c(SC)cc(C)[nH]c4=O)c(C)c4c3OC(C)(C3CCN(CC(F)(F)F)CC3)O4)cn2)CC1 (stereo not shown) [Compound 75, 7-(2-(4-ethylpiperazin-1-yl)pyrimidin-5-yl)-2,4-dimethyl-N-((6-methyl-4-(methylthio)-2-oxo-1,2-dihydropyridin-3-yl)methyl)-2-(1-(2,2,2-trifluoroethyl)piperidin-4-yl)benzo[d][1,3]dioxole-5-carboxamide] | ≤ 0.01 µM |
| CCCCN(C)c1ncc(-c2cc(C(=O)NCc3c(SC)cc(C)[nH]c3=O)c(C)c3c2OC(C)(C2CCN(CC(F)(F)F)CC2)O3)cn1 (stereo not shown) [Compound 99] | ≥ 0.1 µM |
| CSc1cc(C)[nH]c(=O)c1CNC(=O)c1cc(-c2cnc(N3CCSCC3)nc2)c2c(c1C)OC(C)(C1CCN(CC(F)(F)F)CC1)O2 (stereo not shown) [Compound 92, 2,4-dimethyl-N-((6-methyl-4-(methylthio)-2-oxo-1,2-dihydropyridin-3-yl)methyl)-7-(2-thiomorpholinopyrimidin-5-yl)-2-(1-(2,2,2-trifluoroethyl)piperidin-4-yl)benzo[d][1,3]dioxole-5-carboxamide] | 0.01 to 0.1 µM |
| CSc1cc(C)[nH]c(=O)c1CNC(=O)c1cc(-c2ccc(N3CCCCC3)nc2)c2c(c1C)OC(C)(C1CCN(CC(F)(F)F)CC1)O2 (stereo not shown) [Compound 91, 2,4-dimethyl-N-((6-methyl-4-(methylthio)-2-oxo-1,2-dihydropyridin-3-yl)methyl)-7-(6-(piperidin-1-yl)pyridin-3-yl)-2-(1-(2,2,2-trifluoroethyl)piperidin-4-yl)benzo[d][1,3]dioxole-5-carboxamide] | ≥ 0.1 µM |
| CSc1cc(C)[nH]c(=O)c1CNC(=O)c1cc(-c2ccc(F)nc2F)c2c(c1C)OC(C)([C@H]1CC[C@H](N(C)C)CC1)O2 (stereo partly drawn) [Compound 14, 7-(2,6-difluoropyridin-3-yl)-2-(trans-4-(dimethylamino)cyclohexyl)-2,4-dimethyl-N-((6-methyl-4-(methylthio)-2-oxo-1,2-dihydropyridin-3-yl)methyl)benzo[d][1,3]dioxole-5-carboxamide] | ≤ 0.01 µM |
| CSc1cc(C)[nH]c(=O)c1CNC(=O)c1cc(-c2ccc(N3C[C@@H](C)O[C@@H](C)C3)nc2)c2c(c1C)OC(C)(C1CCN(CC(F)(F)F)CC1)O2 (stereo partly drawn) [Compound 33, 7-(6-((2S,6R)-2,6-dimethylmorpholino)pyridin-3-yl)-2,4-dimethyl-N-((6-methyl-4-(methylthio)-2-oxo-1,2-dihydropyridin-3-yl)methyl)-2-(1-(2,2,2-trifluoroethyl)piperidin-4-yl)benzo[d][1,3]dioxole-5-carboxamide] | ≤ 0.01 µM |
| CSc1cc(C)[nH]c(=O)c1CNC(=O)c1cc(-c2cnc(N3CCC(F)(F)CC3)nc2)c2c(c1C)OC(C)([C@H]1CC[C@H](N(C)C)CC1)O2 (stereo partly drawn) [Compound 8, 7-(2-(4,4-difluoropiperidin-1-yl)pyrimidin-5-yl)-2-(trans-4-(dimethylamino)cyclohexyl)-2,4-dimethyl-N-((6-methyl-4-(methylthio)-2-oxo-1,2-dihydropyridin-3-yl)methyl)benzo[d][1,3]dioxole-5-carboxamide] | ≤ 0.01 µM |
| CSc1cc(C)[nH]c(=O)c1CNC(=O)c1cc(-c2ccc3c(c2)OCO3)c2c(c1C)OC(C)(C1CCN(CC(F)F)CC1)O2 (stereo not shown) [Compound 95, 2-(1-(2,2-difluoroethyl)piperidin-4-yl)-2,7-dimethyl-N-((6-methyl-4-(methylthio)-2-oxo-1,2-dihydropyridin-3-yl)methyl)-[4,5′-bibenzo[d][1,3]dioxol]-6-carboxamide] | 0.01 to 0.1 µM |
